According to paper PMC11134387, “Cancer-Stem-Cell Phenotype-Guided Discovery of a Microbiota-Inspired Synthetic Compound Targeting NPM1 for Leukemia” (JACS Au, 2024):

Experiments:
[1] = target: T1, NPM1 C-end WT (Homo sapiens, UniProt P06748); assay: Isothermal titration calorimetry, NPM1 C-end WT; type: binding; conditions: ITC, 25 °C
T1 construct: the C-end domain (residues 225- 294); 6xHis (N); made in house; host or cells: E. coli BL21(DE3)
Description: To confirm a direct interaction of UCM-13369 with NPM1 and to address which domain of the protein would be responsible for binding the compound, pure protein samples of the pentameric N-end domain of NPM1, along with the C-terminal DNA-binding domains of WT and mutant NPM1 C+, were used in calorimetry assays. […] This is indicative of a lower diversity in the chemical environment of amide protons consistent with the previously reported protein unfolding.[29] […] On the other hand, the pentameric construct of the NPM1 N-end, which lacks the AML-related region, yielded a much lower binding affinity (KD ca. 100 μM range, Figure 3D).
ITC experiments were performed in a Nano ITC Low Volume (TA Instruments) at 25 °C. […]
The purity of the protein samples was checked by SDS–PAGE analysis (Figure S3) and protein quantification was performed using the Bradford protein assay.5 NPM molar concentration was expressed as the pentameric form for NPM1 WT N-end and as a monomer for NPM1 C-end WT and mutant. […]
After extraction with acetonitrile and acidification, samples were desalted and concentrated with C18 tips. Mass spectra were recorded in a Hybrid Quadrupole-Orbitrap™ Mass Spectrometer (Thermo Scientific, Waltham, Massachusetts, USA)

[2] = system: primary HSCs from patients with NPM1 C+ AML; assay: CD34+ liquid HSC short-term culture, NPM1 C+ AML patients; type: cell-based; conditions: Homo sapiens, n = 4
Procedure: Considering the inhibitory capacity of UCM-13369 on AML cell lines (shown in Figure 3A), the therapeutic potential was assessed in primary CD34+ cells from AML patients. Two ex vivo models were used from AML patients and healthy donors: CD34+ liquid HSC (hematopoietic stem cell) culture as a short-term model and CFU-E (colony-forming unit–erythroid) as a midterm model.
The test compound was diluted in PBS. […]
quantitative real-time PCR (qPCR), or were sorted using a FACS BD INFL UX cell sorter (BD Biosciences, Franklin Lakes, NJ, USA). All cells were maintained at 37 °C in a humidified incubator in an atmosphere of 5% CO2, and passaged every 2–3 days. […]
Primary cells. […] After 72 h in maintenance cells were ready to start the assays. […]
Colonospheres, mamospheres and colony formation unit assays. […] After 10 days (mamospheres and colonospheres) and 14 days (CFU-E) we quantified t he number of colonies/spheres and number of cell s (CFU-E) by […]
RNA and DNA extraction and quantitative PCR (qPCR). […] Gene expression was studied from the extracted RNA, processed into cDNA to quantify the expression of NPM1 and c-MYC. […]
The relative amount of targets was determined by the comparative Ct method.
Western blot. […] Lysates wer e cl ear ed by centrifugation (14,000g, 4 °C, 30 min), protein concentration determined by Bradford

T1 sequence (P06748 225-294): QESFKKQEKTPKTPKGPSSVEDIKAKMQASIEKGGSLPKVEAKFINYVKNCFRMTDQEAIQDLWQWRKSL

## COc1ccc(C2Cc3[nH]c4ccccc4c3C(CCNCC3CC3)C2N)cc1 (centres unmarked) [4b, 4-{2-[(Cyclopropylmethyl)amino]ethyl}-2-(4-methoxyphenyl)-2,3,4,9-tetrahydro-1H-carbazol-3-amine]
[1]
  Kd: 37 µM
[2]
  IC50: 1720 nM
